Common to all, as to assay type: in vivo
The test system of data set [1] is Solanum nigrum (black nightshade). The experiment in a line: Field trial visual weed control, SOLNI. The settings on record: 16DAA. As to the method: (§1) One field trial was conducted in field-grown cotton using standard herbicide small plot research methodology (Table 2). Plots were 2 rows wide by 20 ft long with 4 replicates per treatment. The cotton crop was grown using normal cultural practices for fertilization, seeding, watering, flooding and maintenance to ensure good growth of the crop and the weeds.
(§2) All treatments in the field trials were applied using a CO2 backpack sprayer calibrated to apply 187 L/ha spray volume. Commercially available products of penoxsulam and mepiquat chloride were mixed in water at appropriate formulated product rates to achieve the desired rates based on a unit area of application (hectare) to achieve the desired rates as shown. Treatments were sprayed as a postemergence foliar application to cotton at 10-leaf stage application timing. Treatments were rated at 16 and 41 days after the application as compared to the untreated control plants. Visual crop injury ratings were scored on a scale of 0 to 100 where 0 corresponds to no injury and 100 corresponds to complete control. Visual weed control was scored on a scale of 0 to 100 percent where 0 corresponds to no weed control and 100 corresponds to complete control.

Data set [2] concerns Amaranthus spp, (pigweed). The experiment in a line: Field trial visual weed control, AMASS. The following applies: 16DAA. As to the method: as §1, §2
The subject of data set [3] is cotton. Briefly: Postemergence plant growth regulator activity in the field (cotton). The settings on record: for Injury (Cotton) / Reduction (height reduction, Cotton) / Maturity (% open bolls, Cotton): 10-leaf stage. As to the method:
Evaluation of Postemergence Plant Growth Regulator Activity in the Field
as §1, §2

Data set [4] concerns cotton. The following applies: for Number (Bolls): 52DAAA. As to the method: Evaluation of Postemergence Plant Growth Regulator Activity in the Greenhouse Treatments consisted of the compounds as listed in Table 1. Formulated amounts of penoxsulam (Dow AgroSciences Granite® SC herbicide) were placed in 3-liter bottles and dissolved in a volume of 500 mL of a water solution containing Agri-dex crop oil concentrate in a 1.25% v/v ratio. Compound requirements are based upon a 0.3 L application volume at a rate of 187 liters per hectare (L/ha). Spray solutions of the mixtures were prepared by adding the stock solutions to the appropriate amount of dilution solution to form a 500 mL spray solution with active ingredients in single and two way combinations. Formulated compounds were applied to the plant material via backpack sprayer with XR 11001 nozzles calibrated to deliver 187 L/ha at a spray height of 18 inches ([…] centimeters (cm)) above average plant canopy. The treated and control plants were placed in a greenhouse in a randomized block design on greenhouse carts and watered by […] irrigation to prevent wash-off of the test compounds from leafy tissues. Treatments were rated at 14 to 52 days after application as compared to the untreated control plants. Visual injury ratings were scored on a scale of 0 to 10 where 0 corresponds to no injury and 10 corresponds to complete control.

Each structure is given as a SMILES string. Like-named read-outs stand apart in the source and are kept apart here.

`C[N+]1(C)CCCCC1` [Mepiquat-chloride]: in data set [1] (74 gr ai/ha), the “Control (SOLNI)” value is 91.3 % Visual. The “Control (AMASS)” value in data set [2] (74 gr ai/ha) was 95 % Visual. Besides, in the data set with cotton [3] (74 gr ai/ha, 16DAA), the “Injury (Cotton)” value turned out to be 0 % Visual and the “Reduction (height reduction, Cotton)” value turned out to be 11.3 % Visual. Further, in the data set with cotton [3] (74 gr ai/ha, 41DAA), the “Injury (Cotton)” value is listed as 5 % Visual; the “Maturity (% open bolls, Cotton)” value turned out to be 53.8 % Visual; the “Reduction (height reduction, Cotton)” value was 13.8 % Visual.
In the case of `COc1cnc(OC)n2nc(NS(=O)(=O)c3c(OCC(F)F)cccc3C(F)(F)F)nc12` [Penoxsulam, 2-(2,2-difluoroethoxy)-N-(5,8-dimethoxy[1.2.4]triazolo[1,5-c]pyrimidine-2-yl)-6-(trifluoromethyl)benzenesulfonamide], the Height in the data set with cotton [4] (8.8 gr ai/ha, application A (4 leaf cotton), 14DAAA) is 17.6 Cm; in the data set on cotton [4] (8.8 gr ai/ha, application A (4 leaf cotton), 27DAAA), 25.5 Cm; in the data set on cotton [4] (8.8 gr ai/ha, application A (4 leaf cotton), 49DAAA), 36.6 Cm; in the data set on cotton [4] (8.8 gr ai/ha, application B (10 leaf cotton, 21 days after A timing), 14DAAA), 28.8 Cm; with cotton [4] (8.8 gr ai/ha, application B (10 leaf cotton, 21 days after A timing), 27DAAA), 32.7 Cm; in the data set on cotton [4] (8.8 gr ai/ha, application B (10 leaf cotton, 21 days after A timing), 49DAAA) it was 44 Cm. Besides, the Height in the data set on cotton [4] (17.5 gr ai/ha, application A (4 leaf cotton), 14DAAA) is recorded as 15.7 Cm; in the data set on cotton [4] (17.5 gr ai/ha, application A (4 leaf cotton), 27DAAA), 21.8 Cm; in the data set on cotton [4] (17.5 gr ai/ha, application A (4 leaf cotton), 49DAAA) it was 33.5 Cm; in the data set on cotton [4] (17.5 gr ai/ha, application B (10 leaf cotton, 21 days after A timing), 14DAAA), 27.2 Cm; with cotton [4] (17.5 gr ai/ha, application B (10 leaf cotton, 21 days after A timing), 27DAAA), 30.4 Cm; in the data set with cotton [4] (17.5 gr ai/ha, application B (10 leaf cotton, 21 days after A timing), 49DAAA), 39.2 Cm. For the same compound, the Height in the data set on cotton [4] (35 gr ai/ha, application A (4 leaf cotton), 14DAAA) worked out at 15.5 Cm; with cotton [4] (35 gr ai/ha, application A (4 leaf cotton), 27DAAA), 20.5 Cm; with cotton [4] (35 gr ai/ha, application A (4 leaf cotton), 49DAAA) it was 30.1 Cm. The “Number (Bolls)” value is recorded as 3.2 Bolls in the data set on cotton [4] (8.8 gr ai/ha, application A (4 leaf cotton)); 9 Bolls in the data set with cotton [4] (8.8 gr ai/ha, application B (10 leaf cotton, 21 days after A timing)); 2.2 Bolls with cotton [4] (17.5 gr ai/ha, application A (4 leaf cotton)); 8.4 Bolls with cotton [4] (17.5 gr ai/ha, application B (10 leaf cotton, 21 days after A timing)); 2.8 Bolls with cotton [4] (35 gr ai/ha, application A (4 leaf cotton)). The “plant growth regulator effect on cotton (summary of Table 1)” value with cotton [4] (greenhouse) is “growth regulating activity of penoxsulam on cotton growth and increase in cotton boll production”. Further, the “Control (SOLNI)” value in data set [1] (35 gr ai/ha) was determined as 88.8 % Visual; in data set [1] (70 gr ai/ha), 93.8 % Visual. Moreover, the “Control (AMASS)” value in data set [2] (35 gr ai/ha) is given as 95 % Visual; in data set [2] (70 gr ai/ha) it was 98.8 % Visual. Besides, the “Reduction (height reduction, Cotton)” value in the data set with cotton [3] (35 gr ai/ha, 16DAA) is recorded as 11.3 % Visual; in the data set on cotton [3] (35 gr ai/ha, 41DAA) it was 10 % Visual; with cotton [3] (70 gr ai/ha, 16DAA), 9.3 % Visual; with cotton [3] (70 gr ai/ha, 41DAA), 5 % Visual. Also, the “Maturity (% open bolls, Cotton)” value in the data set on cotton [3] (35 gr ai/ha, 41DAA) turned out to be 62.5 % Visual; in the data set on cotton [3] (70 gr ai/ha, 41DAA) it was 48.8 % Visual. In the data set on cotton [3] (field), the “plant growth regulator effect on cotton (summary of Table 2)” value is recorded as “growth inhibiting activity of penoxsulam, similar to the commercial product mepiquat-chloride, while increasing the maturity of cotton bolls”.

The values are drawn from patent US8680013B2, “Growth inhibition of cotton with penoxsulam” (Dow AgroSciences, LLC., priority 2011, dated 2014).
